Experimental data published in ChEMBL document CHEMBL1135186, “Novel diphenylalkyl piperazine derivatives with dual calcium antagonistic and antioxidative activities” (Bioorg Med Chem Lett, 2002).

Key:
Canis familiaris [1] = organism: Canis familiaris; test: Concentration of the test compound required to inhibit the auto oxidative lipid peroxidations in canine brain homogenates by 50% was determined; type: functional; conditions: Canis lupus familiaris
Rattus norvegicus = organism: Rattus norvegicus; test: PD2 value was calculated as -log value of the concentration of the test compound to inhibit 60 mM KCl-induced contractions to 50% expressed as calcium antagonistic activity; type: functional
Canis familiaris [2] = organism: Canis familiaris; test: Inhibitory activity against KCl induced contractile response in isolated canine renal artery was determined expressed as vasodilation effect; type: functional, Canis lupus familiaris
Canis familiaris [3] = organism: Canis familiaris; test: Inhibitory activity against KCl induced contractile response in isolated canine mesenteric artery was determined expressed as vasodilation effect; type: functional, Canis lupus familiaris
Canis familiaris [4] = organism: Canis familiaris; test: Inhibitory activity against KCl induced contractile response in isolated canine basilar artery was determined expressed as vasodilation effect; type: functional, Canis lupus familiaris
Canis familiaris [5] = organism: Canis familiaris; test: Inhibitory activity against KCl induced contractile response in isolated canine coronary artery was determined expressed as vasodilation effect; type: functional, Canis lupus familiaris

Row | SMILES | IC50 (Canis familiaris [1]) | PD2 (Rattus norvegicus) | PD2 (Canis familiaris [2]) | PD2 (Canis familiaris [3]) | PD2 (Canis familiaris [4]) | PD2 (Canis familiaris [5])
1 | CC(=O)OC(CSc1ccccc1)CN1CCN(CCCC(c2ccc(F)cc2)c2ccc(F)cc2)CC1 (centres undefined) | 20 µM | 6.55 |  |  |  | 
2 | OC(CSCc1ccccc1)CN1CCN(CCCC(c2ccc(F)cc2)c2ccc(F)cc2)CC1 (centres undefined) | 28 µM | 6.93 |  |  |  | 
3 | CC(=O)N(CC(O)CN1CCN(CCCC(c2ccc(F)cc2)c2ccc(F)cc2)CC1)c1ccccc1 (centres undefined) | 390 µM | 5.98 |  |  |  | 
4 | OC(CSc1ccccc1)CN1CCN(CCCC(c2ccc(F)cc2)c2ccc(F)cc2)CC1 (centres undefined) | 15 µM | 6.79 | 5.73 | 5.8 | 7 | 6.38
5 | CC(=O)OC(CNc1ccccc1)CN1CCN(CCCC(c2ccc(F)cc2)c2ccc(F)cc2)CC1 (centres undefined) | 13 µM | 6.38 |  |  |  | 
6 | CN(CC(O)CN1CCN(CCCC(c2ccc(F)cc2)c2ccc(F)cc2)CC1)c1ccccc1 (centres undefined) | 19 µM | 5.83 |  |  |  | 
7 | COC(CSc1ccccc1)CN1CCN(CCCC(c2ccc(F)cc2)c2ccc(F)cc2)CC1 (centres undefined) | 20 µM | 6.69 |  |  |  | 
8 | Cc1c(C)c2c(c(C)c1O)CC[C@@](C)(CCC[C@H](C)CCC[C@H](C)CCCC(C)C)O2 [ALPHA-TOCOPHEROL] | 1.5 µM |  |  |  |  | 
9 | OC(CNc1ccccc1)CN1CCN(CCCC(c2ccc(F)cc2)c2ccc(F)cc2)CC1 (centres undefined) | 6.5 µM | 6.7 | 6.27 | 6.1 | 6.76 | 6.32
10 | Fc1ccc(C(c2ccc(F)cc2)N2CCN(C/C=C/c3ccccc3)CC2)cc1 [FLUNARIZINE] |  | 5.98 |  |  |  | 
11 | OC(CNCc1ccccc1)CN1CCN(CCCC(c2ccc(F)cc2)c2ccc(F)cc2)CC1 (centres undefined) | 6.9 µM | 5.85 |  |  |  | 
12 | COC(CNc1ccccc1)CN1CCN(CCCC(c2ccc(F)cc2)c2ccc(F)cc2)CC1 (centres undefined) | 15 µM |  |  |  |  | 
